Assay results published in US5914339A, “Substituted 1,3-benzodioxoles” (American Home Products Corporation, priority 1997, dated 1999).
Read-outs that look alike come from different tables or passages of the source. Values belong to the molecule of their own block, whether it stands above or below them.

Assays:
plasma free fatty acids = assay: Effects on plasma free fatty acid levels in rats; assay type: in vivo, rat; conditions: for ED50: Rattus norvegicus, 50 min, read-out: Rat Free Fatty Acid: ED50
Description: Rats respond to a single oral dose of β3 agonists by increasing plasma free fatty acids (FFA) in response to β3 receptor stimulation on the plasma membrane of the fat cell. 5-{2-[2-(3-Chloro-phenyl)-2-hydroxy-ethylamino]-propyl}-benzo[1,3]dioxole- 2,2-dicarboxylic acid diisopropyl ester (Standard 2) was used as a standard compound. All test compounds were dosed at 0.1 mg/kg and compared to the response by Standard 2.
1). Drugs were dissolved in DMSO at 10 mg/ml.
2). Twenty μl of the DMSO-drug solution was added to 10 mL methyl cellulose:tween-80 (0.5%:0.1%) for a final concentration of 20 μg/mL.
3). Methyl cellulose:tween-80 drug suspension was given via gavage (1 mL/200 g body weight; or 0.1 mg/kg) to rats and blood was collected 50 min later.
4). Plasma was analyzed for free fatty acids using a kit supplied by Biochemical Diagnostics Inc. (Brentwood, N.Y.).
5). Drug response was calculated from the formula below. [formula]
^b Elevation of plasma free fatty acids in rats, compounds tested at
0.1 mg/kg, results expressed as % of
5{2[2(3-Chloro-phenyl)-2-hydroxy-ethylaminopropylbenzo[1,3dioxole-2,2-dic
rboxylic acid diisopropyl ester response (78% increase) at 0.1 mg/kg.
ED50 (mg/kg) values determined for selected compounds.

[1] = biological target: human β2 adrenergic receptor (Homo sapiens, UniProt P07550); assay: cell-based; conditions: for activation at 0.01 µM: 10 min, read-out: β2: % of isoproterenol activity (increase in cAMP)
Summary of the method: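 CHO cells transfected with human β1 or β2 adrenergic receptors were grown to confluence and exposed to compound at 10 nM for 10 min at 37° C. Cellular cAMP was measured by scintillation proximity assay. Activity is expressed as % of the response to 10 μM isoproterenol; EC50 (μM) was determined for selected compounds.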

plasma glucose = assay: Effects on hyperglycemia in db/db mice, plasma glucose; assay type: in vivo, mouse (male, db/db (C57BL/KsJ)); conditions: Mus musculus, po, 96 h; p.o., 4 days, mean of 2 and 4 h values on Day 4; footnote c gives mg/kg/day; read-out: db/db Mice Plasma Glucose: ED50 for lowering of plasma glucose
[2] = biological target: human β1 adrenergic receptor (Homo sapiens, UniProt P08588); assay: Human β1 adrenergic receptor agonist activity, cAMP increase in transfected CHO cells; assay type: cell-based
Description: (§1) The activity of the test compounds on human β-adrenergic receptors was determined with Chinese hamster ovary (CHO) cells transfected with human β2, or β1 adrenergic receptors. Agonist activity is indicated by increased cAMP levels in the CHO cells. Selectivity of the test compounds for the β3 receptor was assessed by comparison with results in β2 and β1 adrenergic receptor transfected cells.
1). Chinese hamster ovary (CHO) cells transfected with human β2, or β1 adrenergic receptors were used in the assay.
2). Cells were grown to confluent conditions in 24 well plates.
3). Drugs were dissolved in DMSO at a concentration of 10 μM.
4). Cells were incubated with drug at 10 nM concentration for 10 min at 37° C.
5). Cell cAMP concentrations were assayed using a scintillation proximity assay kit from Amersham Corp., Chicago, Ill.
6). Activities for the test compounds are expressed as a percentage of the isoproterenol response.
Production of the CHO cells transfected with human β2, or β1 adrenergic receptors, and compound test procedures utilizing the CHO cells, are described by Emorine et al. in their article "Molecular Characterization of the Human Beta3 -Adrenergic Receptor", Science 1989, 245(8), 1118-1121 and by Muzzin et al. in the article "An Adipose Tissue-Specific Beta3 -Adrenergic Receptor", J. Biol. Chem.1991, 266, 24053-24058.
^a Human β receptors expressed in Chinese hamster ovary cells,
compounds tested at 10 nM, results expressed as % of isoproterenol
activity (increase in cAMP) at 10 μM. EC50 (μM) values
determined for selected compounds.

[3] = test system: human β-adrenergic receptors; assay: cAMP elevation in all 3 transfected CHO cell types; assay type: cell-based; conditions: 10 μM, all 3 cell types
Description: as §1
4). […]

[4] = elevation of plasma free fatty acids, oral gavage, selected compounds
[5] = cAMP in CHO cells, selected compounds, read-out: β2: EC50
[6] = cAMP in CHO cells, selected compounds, read-out: β1: EC50
[7] = compounds tested at 10 nM, isoproterenol at 10 μM, CHO cells, 10 min at 37° C

Chain of human β1 adrenergic receptor (P08588 whole entry): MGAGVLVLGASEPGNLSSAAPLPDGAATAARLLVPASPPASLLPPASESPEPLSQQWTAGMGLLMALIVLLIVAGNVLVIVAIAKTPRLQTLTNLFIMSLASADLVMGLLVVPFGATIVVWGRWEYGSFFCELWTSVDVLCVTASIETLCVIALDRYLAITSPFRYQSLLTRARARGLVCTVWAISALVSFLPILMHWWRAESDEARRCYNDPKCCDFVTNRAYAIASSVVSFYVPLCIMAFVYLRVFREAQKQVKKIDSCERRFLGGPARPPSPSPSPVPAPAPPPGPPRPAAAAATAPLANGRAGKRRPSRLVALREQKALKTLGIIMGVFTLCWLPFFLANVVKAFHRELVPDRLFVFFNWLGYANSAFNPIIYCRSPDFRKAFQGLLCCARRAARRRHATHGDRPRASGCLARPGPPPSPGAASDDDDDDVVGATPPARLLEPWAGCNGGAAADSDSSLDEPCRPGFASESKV

Molecule: CC(Cc1ccc2c(c1)OC(C(=O)OCC[Si](C)(C)C)(C(=O)OCC[Si](C)(C)C)O2)NCC(O)c1cccc(Cl)c1 (stereo not drawn) [Example 31, 5-{2-[2-(3-Chloro-phenyl)-2-hydroxy-ethylamino]-propyl}-benzo[1,3]dioxole-2,2-dicarboxylic acid bis-(2-trimethylsilanyl-ethyl) ester]
- ED50 (plasma free fatty acids; po): 0.09 mg/kg
- activation at 0.01 µM ([1]; CHO): 5%

- EC50 [1, 5]: 325 nM
- EC50 [2, 6]: 5000 nM
Molecule: C[C@H](Cc1ccc2c(c1)OC(C(=O)OCC(C)(C)C)(C(=O)OCC(C)(C)C)O2)NC[C@H](O)c1cccc(Cl)c1 [Example 78, 5-{(2R)-2-[(2R)-2-(3-Chloro-phenyl)-2-hydroxy-ethylamino]-propyl}-benzo[1,3]dioxole-2,2-dicarboxylic acid bis-(2,2-dimethyl-propyl) ester]
- ED50 (plasma free fatty acids; [4]): 0.027 mg/kg
- ED50 (plasma glucose): 0.028 mg/kg

Molecule: CC(Cc1ccc2c(c1)OC(C(=O)OC(C)C)(C(=O)OC(C)C)O2)NCC(O)c1cccc(Cl)c1 (stereo not drawn) [5-{2-[2-(3-Chloro-phenyl)-2-hydroxy-ethylamino]-propyl}-benzo[1,3]dioxole-2,2-dicarboxylic acid diisopropyl ester, reference compound]
- increase of plasma free fatty acids (plasma free fatty acids; 0.1 mg/kg, rats): 78%

- EC50 [1, 5]: 100 nM
- EC50 [2, 6]: 5900 nM
Molecule: CC(Cc1ccc2c(c1)OC(C(=O)OCCC(C)(C)C)(C(=O)OCCC(C)(C)C)O2)NCC(O)c1cccc(Cl)c1 (stereo not drawn) [Example 33, 5-{2-[2-(3-Chloro-phenyl)-2-hydroxy-ethylamino]-propyl}-benzo[1,3]dioxole-2,2-dicarboxylic acid bis-(3,3-dimethyl-butyl) ester]
- ED50 (plasma free fatty acids; [4]): 0.08 mg/kg
- ED50 (plasma glucose): 0.201 mg/kg

Molecule: CC(Cc1ccc2c(c1)OC(C(=O)OC(C)c1ccccc1)(C(=O)OC(C)c1ccccc1)O2)NCC(O)c1cccc(Cl)c1 (stereo not drawn) [Example 16, 5-{2-[2-(3-Chloro-phenyl)-2-hydroxy-ethylamino]-propyl}-benzo[1,3]dioxole-2,2-dicarboxylic acid bis-(1-phenyl-ethyl) ester]
- ED50 (plasma free fatty acids; [4]): 0.128 mg/kg

- EC50 [1, 5]: 274 nM
Molecule: CC(Cc1ccc2c(c1)OC(C(=O)OCC1CC1)(C(=O)OCC1CC1)O2)NCC(O)c1cccc(Cl)c1 (stereo not drawn) [Example 38, 5-{2-[2-(3-Chloro-phenyl)-2-hydroxy-ethylamino]-propyl}-benzo[1,3]dioxole-2,2-dicarboxylic acid bis-cyclopropylmethyl ester]
- ED50 (plasma free fatty acids; [4]): 0.086 mg/kg

Molecule: CC(C)CCOC(=O)C1(C(=O)O)Oc2ccc(C[C@@H](C)NC[C@H](O)c3cccc(Cl)c3)cc2O1 (stereo partly drawn) [Example 76, 5-{(2R)-2-[(2R)-2-(3-Chloro-phenyl)-2-hydroxy-ethylamino]-propyl}-benzo[1,3]dioxole-2,2-dicarboxylic acid (3-methylbutyl)ester]
- EC50 [1]: 74 nM
- EC50 [2]: 980 nM

- EC50 [1, 5]: 58 nM
- EC50 [2, 6]: 5400 nM
Molecule: CC(C)CCOC(=O)C1(C(=O)OCCC(C)C)Oc2ccc(C[C@@H](C)NC[C@H](O)c3cccc(Cl)c3)cc2O1 [Example 75, 5-{(2R)-2-[(2R)-2-(3-Chloro-phenyl)-2-hydroxy-ethylamino]-propyl}-benzo[1,3]dioxole-2,2-dicarboxylic acid bis-(3-methylbutyl)ester]
- ED50 (plasma free fatty acids; [4]): 0.026 mg/kg
- ED50 (plasma glucose): 0.11 mg/kg

- activation at 0.01 µM [1, 7]: 14%
Molecule: CC(Cc1ccc2c(c1)OC(C(=O)OCCc1ccsc1)(C(=O)OCCc1ccsc1)O2)NCC(O)c1cccc(Cl)c1 (stereo not drawn) [Example 71, 5-{2-[2-(3-Chloro-phenyl)-2-hydroxy-ethylamino]-propyl}-benzo[1,3]dioxole-2,2-dicarboxylic acid bis 2-(3-Thienyl)ethyl-ester]
- ED50 (plasma free fatty acids; [4]): 0.076 mg/kg

Molecule: C[C@H](Cc1ccc2c(c1)OC(C(=O)O)(C(=O)OCC(C)(C)C)O2)NC[C@H](O)c1cccc(Cl)c1 (stereo partly drawn) [Example 80, 5-{(2R)-2-[(2R)-2-(3-Chloro-phenyl)-2-hydroxy-ethylamino]-propyl}-benzo[1,3]dioxole-2,2-dicarboxylic acid (2,2-dimethyl-propyl)ester]
- EC50 [1]: 55 nM
- EC50 [2]: 2400 nM

Molecule: CC(C)NCC(O)c1ccc(O)c(O)c1 (stereo not drawn) [Isoproterenol]
- cAMP elevation [3]: maximal cAMP elevation

- β2: % of isoproterenol activity (increase in cAMP) [1, 7]: 18%
Molecule: Carbonic acid 3-chloro-benzyl ester 2-(3-chloro-benzyloxycarbonyloxy)-4-{2-[2-(3-chloro-phenyl)-2-hydroxy-ethylamino]-propyl}-phenyl ester [Example 15]
- Rat Free Fatty Acid: elevation of plasma free fatty acids, % of diisopropyl ester (Standard 2) response (plasma free fatty acids; 0.1 mg/kg, gavage, blood collected 50 min later): 46%

- activation at 0.01 µM [1, 7]: 2%
Molecule: CC(Cc1ccc2c(c1)OC(C(=O)OCCOC(C)C)(C(=O)OCCOC(C)C)O2)NCC(O)c1cccc(Cl)c1 (stereo not drawn) [Example 21, 5-{2-[2-(3-Chloro-phenyl)-2-hydroxy-ethylamino]-propyl}-benzo[1,3]dioxole-2,2-dicarboxylic acid bis-(2-isopropoxy-ethyl) ester]
- ED50 (plasma free fatty acids; [4]): 0.086 mg/kg

- EC50 [1, 5]: 420 nM
- EC50 [2, 6]: 8400 nM
Molecule: CC(Cc1ccc2c(c1)OC(C(=O)OCC1CCC1)(C(=O)OCC1CCC1)O2)NCC(O)c1cccc(Cl)c1 (stereo not drawn) [Example 40, 5-{2-[2-(3-Chloro-phenyl)-2-hydroxy-ethylamino]-propyl}-benzo[1,3]dioxole-2,2-dicarboxylic acid bis-cyclobutylmethyl ester]
- ED50 (plasma free fatty acids; [4]): 0.071 mg/kg

Molecule: CC(Cc1ccc2c(c1)OC(C(=O)O)(C(=O)OCC1CCC1)O2)NCC(O)c1cccc(Cl)c1 (stereo not drawn) [Example 70, 5-{2-[2-(3-Chloro-phenyl)-2-hydroxy-ethylamino]-propyl}-benzo[1,3]dioxole-2,2-dicarboxylic acid cyclobutylmethyl ester]
- EC50 [1]: 48 nM
- EC50 [2]: 3000 nM

- EC50 [1, 5]: 59 nM
- EC50 [2, 6]: 380 nM
Molecule: C[C@H](Cc1ccc2c(c1)OC(C(=O)O)(C(=O)OCCC(C)(C)C)O2)NC[C@H](O)c1cccc(Cl)c1 (stereo partly drawn) [Example 81, 5-{(2R)-2-[(2R)-2-(3-Chloro-phenyl)-2-hydroxy-ethylamino]-propyl}-benzo[1,3]dioxole-2,2-dicarboxylic acid (3,3-dimethylbutyl) ester]

- EC50 [1, 5]: 22 nM
Molecule: CC(Cc1ccc2c(c1)OC(C(=O)OCCc1ccccc1)(C(=O)OCCc1ccccc1)O2)NCC(O)c1cccc(Cl)c1.Cl (stereo not drawn) [Example 2, 5-{2-[2-(3-Chloro-phenyl)-2-hydroxy-ethylamino]-propyl}-benzo[1,3]dioxole-2,2-dicarboxylic acid diphenethyl ester hydrochloride salt]
- ED50 (plasma free fatty acids; [4]): 0.071 mg/kg
- ED50 (plasma glucose): 0.128 mg/kg
